In patent US10392348B2, “2-oxo-3,4-dihydroquinoline compounds as plant growth regulators” (Syngenta Participations AG, priority 2015, dated 2019):
Like-named read-outs stand apart in the source and are kept apart here.

Test system: soybean plants (variety S20-G7)
Experiment: Reduced plant water use in soybean (foliar spray, repeated weighing of pots)
Format: in vivo
Settings: Glycine max, foliar, Table B1, sprayed at 500 μM, vs negative control
Procedure: Compounds were tested for their effect on reducing plant water use as follows. Each compound was dissolved in a blank emulsifiable concentrate (EC) formulation that was then diluted to the desired concentration with water containing additional surfactant (EXTRAVON 1 g/20 L). The compounds were applied by foliar spray to 12 day old soybean plants (variety S20-G7) grown in controlled environment plant growth chambers. Plant water use during the day was assessed by repeated weighing of the pots in which the plants were grown before and after application of the compounds at the indicated times (expressed in days after application (DAA)). The water use data before application was used to correct any differences in water use arising due to non-treatment effects (e.g. due to differences in plant size). The untransformed water use values were subjected to an analysis of covariance, fitting the effect of treatment and using the baseline water use 1 day before application as a covariate.
The results are expressed compared to negative control treatment (diluted EC formulation without active ingredient but with EXTRAVON 1 g/20 L).
Application of the chemicals (0 DAA) takes place approximately between 08:00 and 09:30 a.m. WU is measured within day time (chamber light is on 06:00 to 20:00) at these timepoints: 0 DAA a.m. (10:30-12:50), 0 DAA p.m. (14:00-19:50), 1 DAA a.m. (7:30-12:50), 1 DAA p.m. (14:00-19:50), 2 DAA a.m. (07:30-12:50) and 2 DAA p.m. (14:00-19:50). The cumulative total WU (0-2.5 DAA) is calculated by summing the WU data mentioned above.

[1] = 0 h, 0 DAA a.m. (10:30-12:50), read-out: % WU 0 DAA AM
[2] = 24 h, 1 DAA a.m. (7:30-12:50), read-out: % WU 1DAA AM
[3] = 24 h, 1 DAA p.m. (14:00-19:50), read-out: % WU 1DAA PM
[4] = 48 h, 2 DAA a.m. (07:30-12:50), read-out: % WU 2 DAA AM
[5] = 48 h, 2 DAA p.m. (14:00-19:50), read-out: % WU 2 DAA PM
[6] = 60 h, cumulative total WU (0-2.5 DAA), read-out: % WU Total 0 to 2.5 DAA

Row | Structure (SMILES) | change in vivo at 500 µM [1] [%] | change in vivo at 500 µM [2] [%] | change in vivo at 500 µM [3] [%] | change in vivo at 500 µM [4] [%] | change in vivo at 500 µM [5] [%] | change in vivo at 500 µM [6] [%]
1 | C=CCN1C(=O)CCc2cc(CNS(=O)(=O)c3ccccc3)ccc21 [Compound 5.001, N-[(1-allyl-2-oxo-3,4-dihydroquinolin-6-yl)methyl]benzenesulfonamide] | -15.1 | -18.7 | -17.4 | -16.5 | -15.6 | -17.1
2 | C=CCN1C(=O)CCc2cc(CNS(=O)(=O)c3ccc(F)cc3F)ccc21 [Compound 5.006, N-[(1-allyl-2-oxo-3,4-dihydroquinolin-6-yl)methyl]-2,4-difluoro-benzenesulfonamide] | -13.6 | -12.5 | -11.5 | -9.7 | -9.9 | -11.4
3 | CCCn1c(=O)ccc2cc(CNS(=O)(=O)c3ccc(F)cc3F)ccc21 [Compound 7.006, 2,4-difluoro-N-[(2-oxo-1-propyl-6-quinolyl)methyl]benzenesulfonamide] | -14.6 | -6.7 | -4.2 | -4.2 | 0 | -6.1
4 | CCCn1c(=O)ccc2cc(CNS(=O)(=O)c3ccc(F)cc3)ccc21 [Compound 7.009, 4-fluoro-N-[(2-oxo-1-propyl-6-quinolyl)methyl]benzenesulfonamide] | -8.1 | -3.6 | -3.5 | -4 | -1.7 | -4.1
5 | O=C1CCc2cc(CNS(=O)(=O)c3ccccc3)ccc2N1CC1CC1 [Compound 10.001, N-[[1-(cyclopropylmethyl)-2-oxo-3,4-dihydroquinolin-6-yl]methyl]benzenesulfonamide] | -25.2 | -23.8 | -22.7 | -14.9 | -14.7 | -20.8
6 | O=C1CCc2cc(CNS(=O)(=O)c3ccc(F)cc3F)ccc2N1CC1CC1 [Compound 10.006, N-[[1-(cyclopropylmethyl)-2-oxo-3,4-dihydroquinolin-6-yl]methyl]-2,4-difluoro-benzenesulfonamide] | -22.4 | -18.5 | -18.2 | -16.9 | -17.8 | -18.6
7 | O=C1CCc2cc(CNS(=O)(=O)c3ccccc3)ccc2N1CC(F)(F)F [Compound 11.001, N-[[2-oxo-1-(2,2,2-trifluoroethyl)-3,4-dihydroquinolin-6-yl]methyl]benzenesulfonamide] | -20.8 | -26.2 | -27.6 | -26.9 | -26.9 | -26.1
8 | O=C1CCc2cc(CNS(=O)(=O)c3ccc(F)cc3F)ccc2N1CC(F)(F)F [Compound 11.006, 2,4-difluoro-N-[[2-oxo-1-(2,2,2-trifluoroethyl)-3,4-dihydroquinolin-6-yl]methyl]benzenesulfonamide] | -13 | -15.3 | -15.7 | -16.4 | -16.5 | -15.8
9 | COCCN1C(=O)CCc2cc(CNS(=O)(=O)c3ccccc3)ccc21 [Compound 13.001, N-[[1-(2-methoxyethyl)-2-oxo-3,4-dihydroquinolin-6-yl]methyl]benzenesulfonamide] | -15.1 | -11 | -11 | -8.9 | -9.2 | -11.1
10 | COCCN1C(=O)CCc2cc(CNS(=O)(=O)c3ccc(F)cc3F)ccc21 [Compound 13.006, 2,4-difluoro-N-[[1-(2-methoxyethyl)-2-oxo-3,4-dihydroquinolin-6-yl]methyl]benzenesulfonamide] | -9.8 | -9.3 | -10.1 | -9.6 | -10.3 | -10.1
11 | CCN1C(=O)CC(C)c2cc(CNS(=O)(=O)c3ccccc3)cc(C)c21 (stereo not drawn) [Compound 16.001, N-[(1-ethyl-4,8-dimethyl-2-oxo-3,4-dihydroquinolin-6-yl)methyl]benzenesulfonamide] | -39 | -49 | -48.1 | -45.7 | -44.5 | -46
12 | CCCN1C(=O)CCc2cc(CNS(=O)(=O)c3ccccc3)cc(F)c21 [Compound 17.001, N-[(8-fluoro-2-oxo-1-propyl-3,4-dihydroquinolin-6-yl)methyl]benzenesulfonamide] | -41.6 | -38 | -36.3 | -27.1 | -26.3 | -34.7
13 | CCN1C(=O)CC(C)c2cc(CNS(=O)(=O)c3ccccc3)cc(F)c21 (stereo not drawn) [Compound 22.001, N-[(1-ethyl-8-fluoro-4-methyl-2-oxo-3,4-dihydroquinolin-6-yl)methyl]benzenesulfonamide] | -46.1 | -55.8 | -53 | -55.1 | -50.1 | -52.1
14 | CC1CC(=O)N(CC(F)(F)F)c2ccc(CNS(=O)(=O)c3ccccc3)cc21 (stereo not drawn) [Compound 23.001, N-[[4-methyl-2-oxo-1-(2,2,2-trifluoroethyl)-3,4-dihydroquinolin-6-yl]methyl]benzenesulfonamide] | -31.3 | -39.7 | -40.8 | -35.9 | -37.3 | -37.7
15 | CC1CC(=O)N(CC2CC2)c2ccc(CNS(=O)(=O)c3ccccc3)cc21 (stereo not drawn) [Compound 24.001, N-[[1-(cyclopropylmethyl)-4-methyl-2-oxo-3,4-dihydroquinolin-6-yl]methyl]benzenesulfonamide] | -35.3 | -42.8 | -42.8 | -39.9 | -38.3 | -40.6
16 | C=CCN1C(=O)CC(C)c2cc(CNS(=O)(=O)c3ccccc3)ccc21 (stereo not drawn) [Compound 25.001, N-[(1-allyl-4-methyl-2-oxo-3,4-dihydroquinolin-6-yl)methyl]benzenesulfonamide] | -28.2 | -41 | -39.6 | -38.1 | -36.7 | -37.9
